#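 Five compound concentrations were applied to cells in 96-well plates for 48 hours; endpoints were derived by simple linear interpolation of the resulting dose-response curve. GI50 marks 50% less growth. At the TGI there is no net growth.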
# Tested on: MDA-MB-468 breast
# Test: growth of human tumour cells (NCI), 48 h
Compound,GI50,TGI
Cn1ccnc1C(=O)/C=C/c1ccc(CC(=O)Nc2ccc(S(F)(F)(F)(F)F)cc2)cc1,2480 nM,5.17 µM
NC1=C(Br)C(=O)c2ncccc2C1=O,570 nM,2.13 µM
COc1ccc2c(c1)c(-c1nc(-c3c[nH]c4ncccc34)cs1)cn2CCCCN1CCOCC1,1950 nM,3.98 µM
CCc1cccc2c3c(sc12)C(c1ccc(Cl)cc1)C(C#N)=C(N)O3 (stereo unspecified),280 nM,1.02 µM
CS(=O)(=O)c1ccc(-c2cnc(N)c(C(=O)Nc3ccccc3)n2)cc1,> 37200 nM,> 100 µM
NC(=O)c1cc([N+](=O)[O-])c(Cl)c([N+](=O)[O-])c1,1670 nM,3.32 µM
Cn1ccc2c(c1=O)C(=O)c1nccc3c1c-2nc1ccccc13,1440 nM,2.81 µM
C/C(=C\c1ccn(-c2ccc(N)c(F)c2)n1)[C@@H]1C[C@@H]2O[C@]2(C)CCC[C@H](C)[C@H](O)[C@@H](C)C(=O)C(C)(C)[C@@H](O)CC(=O)O1,9.96 nM,–
CN1CCN(c2nc(NCCCCNc3ccnc4cc(Cl)ccc34)c3ccccc3n2)CC1,1580 nM,3.66 µM
COc1ccc(C/C(C)=C(\c2ccc(OCCN3CCOCC3)cc2)c2ccc(OC(=O)Cc3ccccc3)cc2)cc1,514 nM,1.47 µM
CC(CN1CCN(C)CC1)CN1c2ccccc2Sc2ccc(C(F)(F)F)cc21 (stereo unspecified),1630 nM,3.22 µM
CN(c1ccc(NC(=O)Nc2ccc(OC(F)(F)F)cc2)cc1)c1ccnc(Nc2cccc(S(N)(=O)=O)c2)n1,3930 nM,8.86 µM
CCCCCc1ccc(S(=O)(=O)Nc2cccc(-c3csc(NCCN4CCN(C)CC4)n3)c2)cc1,1630 nM,3.16 µM
COc1cc(C(O)c2nc3ccccc3s2)cc(OC)c1OC (stereo unspecified),5680 nM,57.2 µM
COc1ccc(-c2cc(-c3ccccc3)nc(N3CCN(CCNc4ccnc5cc(Cl)ccc45)CC3)n2)cc1,1220 nM,2.62 µM
CC(C)(C)c1cc(NC(=O)Nc2ccc(-c3cn4c5c(sc4n3)CCc3c[nH]cc3-5)cc2)no1,1970 nM,32.8 µM
O=C1CC(c2ccc3c(c2)OCO3)Nc2cc3c(cc21)OCO3 (stereo unspecified),295 nM,0.924 µM
O=C1/C(=C/c2ccccc2F)CNC/C1=C\c1ccccc1F,626 nM,2.75 µM
COc1cc(Cn2c(=S)ss/c2=N\C(=S)N(C)C)cc(OC)c1OC,7040 nM,> 100 µM
COc1ccc(-c2nnc(SCC(=O)Nc3ccc(/C(C)=N\O)cc3)n2-c2ccccc2)cc1OC,16400 nM,> 100 µM
Cn1c(=O)c(Oc2ccc(F)cc2F)cc2cnc(NC(CO)CO)nc21,> 25000 nM,> 25 µM
CCN(CCNc1ccc(C)c2sc3cc(Cl)ccc3c(=O)c12)CC(C)O (stereo unspecified),1740 nM,3.39 µM
COc1ccc(C(=O)/C=C/c2c(C(F)(F)F)nc3sccn23)cc1OC,6180 nM,> 100 µM

Compound,GI50,TGI
Cc1nc2cnc3cc(F)c(-c4ccc(Oc5ncccn5)cc4Cl)cc3c2n1[C@H]1CCN(C(=O)CO)C[C@@H]1F,9470 nM,28.9 µM
C=C(C)[C@@H]1CC[C@]2(C(=O)NCCNCCNCCN)CC[C@]3(C)[C@H](CC[C@@H]4[C@@]5(C)CC[C@H](O)C(C)(C)[C@@H]5CC[C@]43C)[C@@H]12,8880 nM,22.7 µM
CC(C)[C@@]12C[C@@H](OC(=O)COC(=O)/C=C/c3ccccc3)[C@@](C)(O1)[C@@H]1CC[C@@H](C)[C@H]1[C@@H]2OC(=O)/C=C/c1ccccc1,> 61400 nM,> 100 µM
N#Cc1c2cccnc2c2nnc3cc(Cl)c(Cl)cc3n12,1100 nM,2.59 µM
C=CCNCCCN1C(=O)c2ccc3c4c(ccc(c24)C1=O)C(=O)N(CCCNCC=C)C3=O,177 nM,0.423 µM
C=CC1=C[C@@H]2[C@@H]3O[C@]4(CC[C@H](O4)[C@@H](C)C[C@@H](O)C3=O)C[C@H](O)C3=NCC[C@@]32CC1,< 3.33 nM,< 0.00333 µM
N=c1c2c(-c3ccccc3)c(-c3ccccc3)n(Cc3ccccc3)c2ncn1CCCO,581 nM,2.09 µM
CN(C)c1ccc(-c2cc(-c3ccc(Nc4nc(Nc5ccccc5)nc(Nc5ccc(Cl)cc5)n4)cc3)nc(N)n2)cc1,7910 nM,> 100 µM
COC(=O)c1cc(-c2cc(OC)c(OC)c(OC)c2)[nH]c1N/N=C/c1c(Cl)cccc1Cl,8290 nM,48.2 µM
COc1ccn2c(C(C)=O)cc(C(=O)c3ccc4c(c3)Sc3ccccc3N4)c2c1,159 nM,> 24.8 µM
CCCCCCCCCCCCCCCC[N+](C)(C)CCN(Cc1ccc(OC)cc1)c1ncccn1,1040 nM,3.58 µM
COc1ccc(-c2cnnn2-c2cc(OC)c3c(c2)OCO3)cc1,56.5 nM,> 100 µM
C[C@]12CC[C@@H]3c4ccc(O)cc4CC[C@H]3[C@@H]1CC[C@@H]2NS(=O)(=O)c1cccc(C(F)(F)F)c1,4080 nM,16.9 µM
CC1=CCC(OC(=O)C(C)(C)CCC(O)(C(=O)OC2(C(C)C)CCC3(C)OC3C2)C(C)C)(C(C)C)CC1 (stereo unspecified),351 nM,1.24 µM
O=C1c2ccc3c4c5ccc(c24)C(=O)N1CCCOCCCCOCCCNCc1ccc(cc1)CNCCCOCCCCOCCCN(C3=O)C5=O,802 nM,1.65 µM
COc1ccc(C(=O)COc2cccc(/C=C3\CSc4ccccc4C3=O)c2)cc1,1420 nM,2.93 µM
Cc1nc2sc(C(=O)Nc3cccc4ccccc34)c(N)c2cc1C(=O)/C=C/c1ccccc1,194 nM,0.745 µM
O=C1/C(=C/c2ccc([N+](=O)[O-])o2)Oc2ccc(Br)cc21,2020 nM,4.46 µM
C[C@H]1[C@H](C)CC[C@]2(C(=O)N3CCN(C)CC3)CC[C@]3(C)C(=CC[C@@H]4[C@@]5(C)C/C(=C/c6cccnc6)C(=O)C(C)(C)[C@@H]5CC[C@]43C)[C@H]12,665 nM,2.04 µM
O=C(CCCCCCSc1nc(-c2ccccc2)cc(-c2ccccc2)n1)NO,2770 nM,10.5 µM
Cc1ccc2cc3c(ccc4ccccc43)c3c2c1CC3,169 nM,0.372 µM
CCN1CCN(CC(=O)Nc2nc3ccc(NCc4ccc(Cl)cc4)cc3s2)CC1,1770 nM,4.61 µM
Cc1cc(NC(=O)NC(=O)c2ccccc2N)ccc1Oc1ncc(Br)cn1,< 10 nM,> 100 µM
